Experimental data taken from patent US9630947B2, “Therapeutic compounds and related methods of use” (OTSUKA PHARMACEUTICAL CO., LTD., priority 2009, dated 2017).

Biological target: T1, purified STEP46 enzyme (Homo sapiens, UniProt P54829)
T1 sequence (P54829 1-565): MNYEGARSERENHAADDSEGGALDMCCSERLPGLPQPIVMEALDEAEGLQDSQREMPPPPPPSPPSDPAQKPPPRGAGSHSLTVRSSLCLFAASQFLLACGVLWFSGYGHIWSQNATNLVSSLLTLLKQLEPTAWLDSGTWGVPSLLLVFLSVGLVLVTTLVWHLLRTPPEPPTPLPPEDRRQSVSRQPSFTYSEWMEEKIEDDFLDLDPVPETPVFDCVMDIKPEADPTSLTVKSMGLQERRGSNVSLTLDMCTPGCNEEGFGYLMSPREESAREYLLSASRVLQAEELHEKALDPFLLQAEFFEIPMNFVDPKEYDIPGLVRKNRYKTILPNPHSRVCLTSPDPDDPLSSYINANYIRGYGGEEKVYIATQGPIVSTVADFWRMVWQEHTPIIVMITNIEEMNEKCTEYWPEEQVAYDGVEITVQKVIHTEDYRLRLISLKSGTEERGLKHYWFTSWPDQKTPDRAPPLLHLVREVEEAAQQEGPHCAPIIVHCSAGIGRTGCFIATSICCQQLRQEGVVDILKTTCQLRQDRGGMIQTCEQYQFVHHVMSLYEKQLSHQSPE
Assay: STEP46 biochemical assay (DiFMUP fluorescence phosphatase assay)
Settings: DiFMUP 10 μM, read-out: STEP IC50
Description: STEP46 Biochemical Assays
Serial dilutions of compounds were performed in 100% DMSO and 1 uL of compounds were dispensed into 384-well black polystyrene plates (Corning, NY). Compounds were incubated with 24 uL of buffer containing 50 mM Hepes, 1 mM DTT, 0.02% Brij35, 1 ng/well purified STEP46 enzyme for 30 min at room temperature. The reaction was initiated by addition of 25 uL of DiFMUP (6, 8-difluoro-4-methylumbelliferyl phosphate) (InVitrogen, CA) with a final concentration of 10 μM and incubated at 27° C. for 90 min. Final DMSO concentration is 2%. Plates were read with florescence intensity at excitation/emission of 360/460 nm using a PheraStar plate reader (BMG Labtech, NC).
Data were expressed as percentage (%) inhibition of enzyme activity. 0% inhibition is defined as the RFUs (relative fluorescence units) in the absence of compounds and 100% inhibition is defined as RFUs in the absence of STEP46 enzyme. IC50 values of compounds with inhibitory activity against STEP46 were determined by GraphPad Prism (version 4.03) using four parameter logistic equation. Some compounds act as activators. For compounds showing STEP46 enzymatic activation, data are represented as percentage of inhibition but with negative values at three representative concentrations (25, 50 and 100 uM).

Row | SMILES | IC50 [µM]
1 | COc1ccc2nc(-c3cccnc3)nc(Nc3cccc(-c4ccccc4)c3)c2c1 [Compound 426] | > 10
2 | COc1ccc2nc(-c3cccnc3)nc(Nc3nc(-c4cc(F)cc(F)c4)cs3)c2c1 [Compound 457] | 1 to 10
3 | COc1ccc2nc(-c3cccnc3)nc(Nc3nc(-c4ccccc4OC)cs3)c2c1 [Compound 436] | 1 to 10
4 | CNc1nc(-c2cccnc2)nc2c(C)c(-c3ccc(F)c(F)c3)ccc12 [Compound 1445] | 1 to 10
5 | COc1ccc2nc(-c3cccnc3)nc(Nc3cccc4c3OC(F)(F)C(F)(F)O4)c2c1 [Compound 342] | 1 to 10
6 | COc1ccc2nc(-c3ccnnc3)nc(Nc3cccc(C#N)c3)c2c1 [Compound 1187] | < 1
7 | CC(C)Oc1cccc(-c2ccc3nc(-c4cccnc4)nc(Nc4ccc(F)c(Cl)c4)c3c2)c1 [Compound 673] | 1 to 10
8 | COc1ccc2nc(-c3cccnc3)nc(Nc3ccccc3Br)c2c1 [Compound 437] | 1 to 10
9 | Fc1cccc(-c2ccc3nc(-c4cccnc4)nc(NC4CCCCC4)c3c2)c1F [Compound 1516] | > 10
10 | COc1ccc(-c2ccc3c(Nc4ccc(F)c(Cl)c4)nc(-c4cccnc4)nc3c2)cc1 [Compound 680] | 1 to 10
11 | NC(=O)c1ccccc1Nc1nc(-c2cccnc2)nc2cc(-c3cc(F)cc(F)c3)ccc12 [Compound 707] | < 1
12 | COc1cc(-c2ccc3nc(-c4cccnc4)nc(Nc4ccc(F)c(Cl)c4)c3c2)cc(C(F)(F)F)c1 [Compound 664] | 1 to 10
13 | COc1cccc(-c2ccc3nc(-c4cccnc4)nc(Oc4ccc(F)c(Cl)c4)c3c2)c1 [Compound 390] | 1 to 10
14 | CCOc1ccc(-c2ccc3nc(-c4cccnc4)nc(Nc4ccc(F)c(Cl)c4)c3c2)cn1 [Compound 661] | < 1
15 | Clc1cc(Cl)cc(Nc2nc(-c3cnccn3)nc3cc(Cl)ccc23)c1 [Compound 1146] | 1 to 10
16 | Cc1cc(Cl)cc2c(Nc3ccc(F)c(Cl)c3)nc(-c3cnccn3)nc12 [Compound 1225] | 1 to 10
17 | COc1ccc2nc(-c3cccnc3)nc(Nc3nc(C4CCCCC4)cs3)c2c1 [Compound 433] | 1 to 10
18 | CNc1nc(-c2ccnnc2)nc2ccc(-c3cccc(F)c3F)cc12 [Compound 1237] | 1 to 10
19 | CNc1nc(-c2cccnc2)nc2c(C)c(-c3cccc(F)c3F)ccc12 [Compound 1451] | 1 to 10
20 | COc1ccc2nc(-c3cccnc3)nc(Nc3ncc(-c4ccccc4)s3)c2c1 [Compound 418] | 1 to 10
21 | COc1ccc2nc(-c3cnccn3)nc(Nc3ccc(F)c(Cl)c3)c2c1 [Compound 1191] | 1 to 10
22 | CNc1nc(-c2cccnc2)nc2c(C)c(-c3cccc(C#N)c3)ccc12 [Compound 1453] | 1 to 10
23 | COc1ccc2nc(-c3cccnc3)nc(Nc3nc(-c4cccc(F)c4F)cs3)c2c1 [Compound 452] | < 1

Row | SMILES | IC50 [µM]
24 | CNc1nc(-c2cccnc2)nc2ccc(-c3ccc(C(C)=O)cc3OC)cc12 [Compound 1382] | < 1
25 | CNc1nc(-c2cccnc2)nc2cc(C)c(-c3ccc(F)c(F)c3)cc12 [Compound 1416] | 1 to 10
26 | CNc1nc(-c2cccnc2)nc2c(C)cc(-c3ccc(C#N)cc3)cc12 [Compound 1279] | 1 to 10
27 | CNc1nc(-c2cccnc2)nc2ccc(-c3cc(OC)ccc3F)cc12 [Compound 1400] | 1 to 10
28 | Fc1ccc(Nc2nc(-c3ccnnc3)nc3cc(Cl)ccc23)cc1Cl [Compound 1201] | 1 to 10
29 | CNc1nc(-c2cccnc2)nc2ccc(-c3ccc(F)cc3F)c(C)c12 [Compound 1286] | 1 to 10
30 | N#Cc1ccc(-c2ccc3c(Nc4ccc(F)c(Cl)c4)nc(-c4cccnc4)nc3c2)cc1 [Compound 690] | 1 to 10
31 | Cc1cccc(-c2ccc3c(Nc4ccc(F)c(Cl)c4)nc(-c4cccnc4)nc3c2)c1 [Compound 696] | < 1
32 | CNc1nc(-c2cccnc2)nc2c(C)c(-c3cccc(F)c3)ccc12 [Compound 1449] | > 10
33 | COc1ccc2nc(-c3cnccn3)nc(Nc3cc(Cl)cc(Cl)c3)c2c1 [Compound 1194] | < 1
34 | COc1ccc2nc(-c3cccnc3)nc(Nc3nc(CC(C)C)cs3)c2c1 [Compound 460] | 1 to 10
35 | CN(C)c1nc(-c2cccnc2)nc2ccc(-c3ccccc3C#N)cc12 [Compound 1337] | 1 to 10
36 | Nc1nc(-c2cccnc2)nc2cc(-c3cc(F)ccc3F)ccc12 [Compound 1395] | 1 to 10
37 | Fc1ccc(-c2ccc3c(Nc4ccc(F)c(Cl)c4)nc(-c4cccnc4)nc3c2)cc1 [Compound 689] | < 1
38 | COc1ccc2nc(-c3cccnc3)nc(Oc3ccc(Cl)c(Cl)c3)c2c1 [Compound 344] | 1 to 10
39 | COc1ccc2nc(-c3cccnc3)nc(Oc3ccc4[nH]c(=O)ccc4c3)c2c1 [Compound 346] | 1 to 10
40 | Cc1cccc2c(Nc3cccc(OC(F)F)c3)nc(-c3ccnnc3)nc12 [Compound 1168] | 1 to 10
41 | CNc1nc(-c2cccnc2)nc2cc(-c3ccc(F)cc3)ccc12 [Compound 1360] | 1 to 10
42 | COc1ncc(-c2ccc3c(Nc4ccc(F)c(Cl)c4)nc(-c4cccnc4)nc3c2)cn1 [Compound 679] | < 1
43 | COc1cc(OC)cc(-c2ccc3nc(-c4cccnc4)nc(Nc4ccc(F)c(Cl)c4)c3c2)c1 [Compound 642] | < 1
44 | CNc1nc(-c2cccnc2)nc2c(C)cc(-c3cccc(C#N)c3)cc12 [Compound 1281] | < 1
45 | COc1ccc2nc(-c3cccnc3)nc(Nc3nc(-c4ccc(C)cc4)cs3)c2c1 [Compound 429] | < 1
46 | COc1ccc2nc(-c3cccnc3)nc(Nc3ccccc3C(=O)NCCC(F)(F)F)c2c1 [Compound 899] | 1 to 10

Row | SMILES | IC50 [µM]
47 | COc1ccc2nc(-c3cccnc3)nc(Nc3nc(-c4ccccc4)cs3)c2c1 [Compound 416] | < 1
48 | COc1ccc2nc(-c3cccnc3)nc(Nc3ccc4oc(=O)n(C)c4c3)c2c1 [Compound 318] | 1 to 10
49 | Clc1ccc2c(Nc3ccc(Cl)c(Cl)c3)nc(-c3ccnnc3)nc2c1 [Compound 1204] | > 10
50 | CNc1nc(-c2cccnc2)nc2ccc(-c3ccc(F)c(C(F)(F)F)c3)cc12 [Compound 1401] | 1 to 10
51 | Fc1ccc(Nc2nc(-c3cccnc3)nc3cc(-c4ccccc4)ccc23)cc1Cl [Compound 692] | < 1
52 | NC(=O)c1ccccc1Nc1nc(-c2cccnc2)nc2cc(-c3ccccc3F)ccc12 [Compound 702] | < 1
53 | COc1ccc2nc(-c3cccnc3)nc(Nc3ccc4ccn(C)c4c3)c2c1 [Compound 303] | 1 to 10
54 | COc1cccc(-c2ccc3nc(-c4cccnc4)nc(Oc4ccccc4C(N)=O)c3c2)c1 [Compound 393] | 1 to 10
55 | COc1ccc2nc(-c3cccnc3)nc(Nc3cccc(-c4ccc(Cl)cc4)c3)c2c1 [Compound 427] | 1 to 10
56 | CNc1nc(-c2cccnc2)nc2cc(-c3ccc(C)cc3)ccc12 [Compound 1362] | 1 to 10
57 | COc1cncc(-c2ccc3nc(-c4cccnc4)nc(Nc4ccc5[nH]c(=O)sc5c4)c3c2)c1 [Compound 329] | < 1
58 | CN(C)c1cccc(-c2ccc3nc(-c4cccnc4)nc(Nc4ccc(F)c(Cl)c4)c3c2)c1 [Compound 643] | < 1
59 | CNc1nc(-c2cccnc2)nc2cc(C)c(-c3ccc(F)cc3F)cc12 [Compound 1415] | > 10
60 | Fc1ccc(Nc2nc(-c3cnccn3)nc3cc(Cl)ccc23)cc1Cl [Compound 1141] | < 1
61 | NC(=O)c1ccc(-c2ccc3c(Nc4ccc(F)c(Cl)c4)nc(-c4cccnc4)nc3c2)cc1 [Compound 684] | 1 to 10
62 | COc1ccc2nc(-c3cccnc3)nc(Nc3nc(-c4cccc(Br)c4)cs3)c2c1 [Compound 447] | 1 to 10
63 | COc1cccc(-c2ccc3nc(-c4cccnc4)nc(Oc4ccc(F)c(F)c4)c3c2)c1 [Compound 392] | 1 to 10
64 | FC(F)(F)Oc1cccc(Nc2nc(-c3ccnnc3)nc3ccccc23)c1 [Compound 1182] | 1 to 10
65 | COc1ccc2nc(-c3ccnnc3)nc(Nc3ccc(F)c(F)c3)c2c1 [Compound 1186] | 1 to 10
66 | COc1ccc2nc(-c3cccnc3)nc(Nc3nc(-c4ccccc4)c(C(N)=O)s3)c2c1 [Compound 1125] | 1 to 10
67 | N#Cc1cccc(Nc2nc(-c3ccnnc3)nc3cc(Cl)ccc23)c1 [Compound 1203] | 1 to 10
68 | COc1ccc2nc(-c3cccnc3)nc(Nc3nc(-c4cccc(F)c4)cs3)c2c1 [Compound 441] | 1 to 10
69 | CCc1sc(Nc2nc(-c3cccnc3)nc3ccc(OC)cc23)nc1-c1ccccc1 [Compound 463] | 1 to 10
